From the NIST ThermoML archive (doi:10.1016/j.jct.2013.02.001)

Details: Quantum Design PPMS relaxation calorimeter; for molar entropy: 101.33 kPa

O=P([O-])([O-])OP(=O)([O-])[O-].[Fe+2].[Fe+2] [iron(II) pyrophosphate]
Details | molar entropy [J/K/mol]
1 K, Crystal 2 | 0.08421
2 K, Crystal 2 | 0.1749
3 K, Crystal 2 | 0.2781
4 K, Crystal 2 | 0.4026
5 K, Crystal 2 | 0.5598
6 K, Crystal 2 | 0.7639
7 K, Crystal 2 | 1.033
8 K, Crystal 2 | 1.379
9 K, Crystal 2 | 1.814
10 K, Crystal 2 | 2.349
11 K, Crystal 2 | 2.988
12 K, Crystal 2 | 3.726
13 K, Crystal 2 | 4.55
14 K, Crystal 2 | 5.45
15 K, Crystal 2 | 6.422
16 K, Crystal 2 | 7.473
17 K, Crystal 2 | 8.609
18 K, Crystal 2 | 9.826
19 K, Crystal 1 | 11.08
20 K, Crystal 1 | 12.28
25 K, Crystal 1 | 16.82
30 K, Crystal 1 | 20.58
35 K, Crystal 1 | 24
40 K, Crystal 1 | 27.36
45 K, Crystal 1 | 30.72
50 K, Crystal 1 | 34.14
55 K, Crystal 1 | 37.63
60 K, Crystal 1 | 41.21
65 K, Crystal 1 | 44.87
70 K, Crystal 1 | 48.62
75 K, Crystal 1 | 52.44
80 K, Crystal 1 | 56.32
85 K, Crystal 1 | 60.25
90 K, Crystal 1 | 64.23
95 K, Crystal 1 | 68.25
100 K, Crystal 1 | 72.3
110 K, Crystal 1 | 80.43
120 K, Crystal 1 | 88.54
130 K, Crystal 1 | 96.61
140 K, Crystal 1 | 104.61
150 K, Crystal 1 | 112.55
160 K, Crystal 1 | 120.42
170 K, Crystal 1 | 128.21
180 K, Crystal 1 | 135.93
190 K, Crystal 1 | 143.57
200 K, Crystal 1 | 151.13
210 K, Crystal 1 | 158.6
220 K, Crystal 1 | 165.99
230 K, Crystal 1 | 173.3
240 K, Crystal 1 | 180.51
250 K, Crystal 1 | 187.62
260 K, Crystal 1 | 194.64
270 K, Crystal 1 | 201.56
273.15 K, Crystal 1 | 203.72
280 K, Crystal 1 | 208.38
290 K, Crystal 1 | 215.1
298.15 K, Crystal 1 | 220.5
300 K, Crystal 1 | 221.72

Details | Triple point temperature [K]
Crystal 2 | 18.96
